Assay results taken from patent publication US20110086759A1, “CHEMICAL COMPOUNDS” (SYNGENTA CROP PROTECTION, INC., priority 2007, published 2011).

Columns and labels:
Setaria faberi (SETFA) [1] = assay: Post-emergence biological efficacy, glasshouse pot test; assay type: in vivo; conditions: 312 h, Rate 1,000 g/ha, post-emergence spray, evaluated after 13 days (100=total damage to plant; 0=no damage to plant), read-out: Percentage damage caused to weed species, post-emergence, SETFA
Summary of the method: (§1)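 Pot-grown weeds were sprayed 8 days after sowing with test compound in acetone/water (50:50) with 0.5% Tween 20 at 1000 or 250 g/ha. Glasshouse at 24/16° C day/night, 14 h light, 65% humidity. Damage scored 0-100 (100 = total damage) after 13 days.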

[2] = test system: Amaranthus retoflexus (AMARE); assay: as above; assay type: in vivo; conditions: Amaranthus retroflexus, 312 h; Rate 1,000 g/ha; post-emergence spray; evaluated after 13 days (100=total damage to plant; 0=no damage to plant); read-out: Percentage damage caused to weed species, post-emergence, AMARE
Summary of the method: as §1

[3] = test system: Echinochloa crus-galli (ECHCG); assay: as above; assay type: in vivo; conditions: 312 h, Rate 1,000 g/ha, post-emergence spray, evaluated after 13 days (100=total damage to plant; 0=no damage to plant), read-out: Percentage damage caused to weed species, post-emergence, ECHCG
Summary of the method: as §1

[4] = test system: Alopecurus myosuroides (ALOMY); assay: as above; assay type: in vivo; conditions: 312 h, Rate 1,000 g/ha, post-emergence spray, evaluated after 13 days (100=total damage to plant; 0=no damage to plant), read-out: Percentage damage caused to weed species, post-emergence, ALOMY
Summary of the method: as §1

[5] = test system: Ipomea hederaceae (IPOHE); assay: as above; assay type: in vivo; conditions: Ipomoea hederacea, 312 h; Rate 1,000 g/ha; post-emergence spray; evaluated after 13 days (100=total damage to plant; 0=no damage to plant); read-out: Percentage damage caused to weed species, post-emergence, IPOHE
Summary of the method: as §1

Solanum nigrum (SOLNI) [6] = assay: as above; assay type: in vivo; conditions: 312 h, Rate 1,000 g/ha, post-emergence spray, evaluated after 13 days (100=total damage to plant; 0=no damage to plant), read-out: Percentage damage caused to weed species, post-emergence, SOLNI
Summary of the method: as §1

Setaria faberi (SETFA) [7] = assay: Pre-emergence biological efficacy, glasshouse pot test; assay type: in vivo; conditions: 312 h, pre-emergence, rate 1,000 g/ha, evaluated after 13 days (100=total damage to plant; 0=no damage), read-out: Percentage damage caused to weed species, SETFA
Summary of the method: (§2)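 Visual phytotoxicity (0 no damage, 100 total damage) assessed 13 d after treatment. Soil-sown pots sprayed one day post-sowing; dose 1000 or 250 g/ha; formulation in acetone/water 50:50, 0.5% Tween 20.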

[8] = test system: Amaranthus retoflexus (AMARE); assay: as above; assay type: in vivo; conditions: Amaranthus retroflexus, 312 h; pre-emergence, rate 1,000 g/ha, evaluated after 13 days (100=total damage to plant; 0=no damage); read-out: Percentage damage caused to weed species, AMARE
Summary of the method: as §2

[9] = test system: Echinochloa crus-galli (ECHCG); assay: as above; assay type: in vivo; conditions: 312 h, pre-emergence, rate 1,000 g/ha, evaluated after 13 days (100=total damage to plant; 0=no damage), read-out: Percentage damage caused to weed species, ECHCG
Summary of the method: as §2

[10] = test system: Alopecurus myosuroides (ALOMY); assay: as above; assay type: in vivo; conditions: 312 h, pre-emergence, rate 1,000 g/ha, evaluated after 13 days (100=total damage to plant; 0=no damage), read-out: Percentage damage caused to weed species, ALOMY
Summary of the method: as §2

[11] = test system: Ipomea hederaceae (IPOHE); assay: as above; assay type: in vivo; conditions: Ipomoea hederacea, 312 h; pre-emergence, rate 1,000 g/ha, evaluated after 13 days (100=total damage to plant; 0=no damage); read-out: Percentage damage caused to weed species, IPOHE
Summary of the method: as §2

Solanum nigrum (SOLNI) [12] = assay: as above; assay type: in vivo; conditions: 312 h, pre-emergence, rate 1,000 g/ha, evaluated after 13 days (100=total damage to plant; 0=no damage), read-out: Percentage damage caused to weed species, SOLNI
Summary of the method: as §2

## COC(=O)c1nc(-c2ccc(Cl)cc2)nc(NCc2ccco2)c1Cl [Compound 40-125, 5-chloro-2-(4-chlorophenyl)-4-(furan-2-ylmethylamino)-6-methoxycarbonylpyrimidine]
other
  melting point: 132 to 134 °C
Setaria faberi (SETFA) [1]
  pest or weed control at 1000 g/ha: 90%
[2]
  pest or weed control at 1000 g/ha: 100%
[3]
  pest or weed control at 1000 g/ha: 70%
[4]
  pest or weed control at 1000 g/ha: 50%
[5]
  pest or weed control at 1000 g/ha: 90%
Solanum nigrum (SOLNI) [6]
  pest or weed control at 1000 g/ha: 90%
Setaria faberi (SETFA) [7]
  pest or weed control at 1000 g/ha: 40%
[8]
  pest or weed control at 1000 g/ha: 100%
[9]
  pest or weed control at 1000 g/ha: 50%
[10]
  pest or weed control at 1000 g/ha: 40%
[11]
  pest or weed control at 1000 g/ha: 20%
Solanum nigrum (SOLNI) [12]
  pest or weed control at 1000 g/ha: 80%

## NC(=O)c1nc(C2CC2)nc(NCc2ccco2)c1Cl [Compound 201-125, 6-aminocarbonyl-5-chloro-2-cyclopropyl-4-(furan-2-ylmethylamino)-pyrimidine]
other
  melting point: 126 to 128 °C
Setaria faberi (SETFA) [1]
  pest or weed control at 1000 g/ha: 50%
[2]
  pest or weed control at 1000 g/ha: 90%
[3]
  pest or weed control at 1000 g/ha: 20%
[4]
  pest or weed control at 1000 g/ha: 20%
[5]
  pest or weed control at 1000 g/ha: 70%
Solanum nigrum (SOLNI) [6]
  pest or weed control at 1000 g/ha: 90%
Setaria faberi (SETFA) [7]
  pest or weed control at 1000 g/ha: 0%
[8]
  pest or weed control at 1000 g/ha: 70%
[9]
  pest or weed control at 1000 g/ha: 0%
[10]
  pest or weed control at 1000 g/ha: 20%
[11]
  pest or weed control at 1000 g/ha: 40%
Solanum nigrum (SOLNI) [12]
  pest or weed control at 1000 g/ha: 70%

## COC(=O)c1nc(Cl)nc(NCc2ccco2)c1Cl [Compound 207-48, 2,5-dichloro-4-(furan-2-ylmethylamino)-6-methoxy carbonylpyrimidine]
other
  melting point: 110 to 112 °C
Setaria faberi (SETFA) [1]
  pest or weed control at 1000 g/ha: 10%
[2]
  pest or weed control at 1000 g/ha: 30%
[3]
  pest or weed control at 1000 g/ha: 10%
[4]
  pest or weed control at 1000 g/ha: 10%
[5]
  pest or weed control at 1000 g/ha: 30%
Solanum nigrum (SOLNI) [6]
  pest or weed control at 1000 g/ha: 60%
Setaria faberi (SETFA) [7]
  pest or weed control at 1000 g/ha: 20%
[8]
  pest or weed control at 1000 g/ha: 30%
[9]
  pest or weed control at 1000 g/ha: 10%
[10]
  pest or weed control at 1000 g/ha: 20%
[11]
  pest or weed control at 1000 g/ha: 40%
Solanum nigrum (SOLNI) [12]
  pest or weed control at 1000 g/ha: 40%
